Data set [1] can be described thus: acid dissociation index (pK1, pK2) at 25° C. The class given is physicochemical. The following applies: for Difference (pK2 - pK1): 25° C., method (D); for first acid dissociation index / second acid dissociation index: for the dibasic acid, source of value not given. The protocol: The organic dibasic acid used as a deodorant in the present invention is selected from organic dibasic acids and/or salts thereof having a difference between the first acid dissociation index and the second acid dissociation index of 1.7 or more at 25° C. (hereinafter, described as deodorant organic dibasic acid). The acid dissociation index can be measured, for example, by a method (A) described in The Journal of Physical Chemistry vol.
Further, previously obtained data may also be used. […] Further, the organic dibasic acid can be selected based on data bases (D) such as pKa BASE of Compudrug, and the like. The first acid dissociation index and the second acid dissociation index of the organic dibasic acid may be determined by any of the methods (A) to (D).

For data set [2] the following is noted: 25° C.; method (D), data bases such as pKa BASE of Compudrug; cited from earlier work.
Data set [3] can be described thus: Deodorization effect on ammonia odor (dessicator, Kitagawa type gas detector). To be noted: 250 mg base agent, 50 mg of 1% ammonia aqueous solution, 2.5 liter dessicator, 20 minutes; relative to blank 1. The method, then:
Into a schale having a diameter of 4 cm was added 250 mg of the deodorant base agents obtained in Reference Examples 1 and 2, and 50 mg of a 1% ammonia aqueous solution was dropped thereon. The above-mentioned schale was allowed to stand still in a 2.5 liter dessicator for 20 minutes, then, the ammonia concentration (S) was measured by a Kitagawa type gas detector. Further, a schale containing no deodorant base agent was used as a blank 1 and a schale containing 250 mg of water added instead of a deodorant base agent was used as a blank 2, and the ammonia concentration was measured likewise. The ammonia concentration of the blank 1 was represented by C, and the deodorization rate was calculated according to the following formula. As Comparative Example 1, the deodorization effect on an ammonia odor was measured likewise in Example 1 using 250 mg of a solution obtained by dissolving 28 g (0.116 mol) of lauryl methacrylate which is a known deodorant base agent in 115 g of diethylene glycol monoethyl ether.
(Measurement Method of Deodorization Ratio)
Deodorization rate (%)=[(C−S)/C]×100
S: ammonia gas concentration after 20 minutes (ppm)
C: ammonia gas concentration of blank 1 (ppm)

The nature of data set [4]: Deodorization effect on mercaptan (sensory evaluation, filter paper in beaker). The following applies: 150 mg base agent, 50 mg 0.0002% methylmercaptan in propylene glycol; after 20 minutes; grades 0 to 3 (initial odor = 3), average of three examiners. The method, then: Filter paper having a length of 7 cm and a width of 0.5 cm was impregnated with 150 mg of a deodorant base agent, subsequently, the same filter paper was impregnated with 50 mg of a 0.0002% solution of methylmercaptan in propylene glycol. The filter paper was placed in erected condition in a 3 liter beaker and wrapping film was covered on it and left for 20 minutes, then, a odor filling the beaker was subjected to sensory evaluation. The strength of the odor of methylmercaptan at the initial was defined as 3, and odors after 20 minutes were evaluated by three examiners based on four grades from 0 to 3, and the average value thereof was calculated and the first decimal was rounded off to give a deodorization effect.

Data set [5] can be described thus: Deodorization effect on lower fatty acid (sensory evaluation). The following applies: 150 mg of 1% aqueous lower fatty acid mixture 20/60/20; after 20 minutes; grades 0 to 3 (initial odor = 3), average of three examiners.

For the compound `CCC(C)(CC(=O)O)CC(=O)O` [3-methyl-3-ethylglutaric acid], in data set [1], the “Difference (pK2 - pK1)” value is given as 3.08. Moreover, in data set [2], the “First acid dissociation index (pK1)” value is recorded as 3.62 and the “Second dissociation index (pK2)” value is listed as 6.70.
`CC(CC(=O)O)(CC(=O)O)c1ccccc1` [3-methyl-3-phenylglutaric acid]: the “Difference (pK2 - pK1)” value in data set [1] came to 2.05. Moreover, in data set [2], the “First acid dissociation index (pK1)” value is 4.12 and the “Second dissociation index (pK2)” value is listed as 6.17.
Regarding `CC1CCCC(CC(=O)O)(CC(=O)O)C1` (centres unmarked) [3-methylcyclohexyl-1,1-diacetic acid], the “Difference (pK2 - pK1)” value in data set [1] is listed as 2.59. In data set [2], the “First acid dissociation index (pK1)” value is listed as 3.49 and the “Second dissociation index (pK2)” value is listed as 6.08.
With `CC1CCC(CC(=O)O)(CC(=O)O)C1` (centres unmarked) [3-methylcyclopentyl-1,1-diacetic acid], in data set [1], the “Difference (pK2 - pK1)” value is 2.95. Also, in data set [2], the “First acid dissociation index (pK1)” value is listed as 3.79 and the “Second dissociation index (pK2)” value is on record as 6.74.
For the compound `CCCC(CC(=O)O)(CC(=O)O)c1ccccc1` [3-phenyl-3-propylglutaric acid], the “Difference (pK2 - pK1)” value in data set [1] turned out to be 3.06. Besides, in data set [2], the “First acid dissociation index (pK1)” value is recorded as 3.88 and the “Second dissociation index (pK2)” value is 6.94.
For the compound `CC(C)(C)C(C)(CC(=O)O)CC(=O)O` [3-t-buthyl-3-methylglutaric acid], the “Difference (pK2 - pK1)” value in data set [1] came out at 3.88. In addition, in data set [2], the “First acid dissociation index (pK1)” value is recorded as 3.61 and the “Second dissociation index (pK2)” value was 7.49.
For `CC1CCC(CC(=O)O)(CC(=O)O)CC1` [4-methylcyclohexyl-1,1-diacetic acid], the “Difference (pK2 - pK1)” value in data set [1] was 2.61. For the same compound, in data set [2], the “First acid dissociation index (pK1)” value is 3.49 and the “Second dissociation index (pK2)” value is 6.10.
Regarding `O=C(O)[C@H]1CC[C@H]1C(=O)O` [Cis-1,2-cyclobutanedicarboxylic acid], the “Difference (pK2 - pK1)” value in data set [1] is 2.07. In addition, in data set [2], the “First acid dissociation index (pK1)” value is listed as 4.16 and the “Second dissociation index (pK2)” value is listed as 6.23.
For the compound `O=C(O)[C@H]1CCCCC[C@H]1C(=O)O` [Cis-1,2-cycloheptanedicarboxylic acid], the “Difference (pK2 - pK1)” value in data set [1] is reported as 3.73. In data set [2], the “First acid dissociation index (pK1)” value is 3.87 and the “Second dissociation index (pK2)” value is on record as 7.60.
In the case of `O=C(O)[C@H]1CCCCCC[C@H]1C(=O)O` [Cis-1,2-cyclooctanedicarboxylic acid], the “Difference (pK2 - pK1)” value in data set [1] was found to be 3.35. Further, in data set [2], the “First acid dissociation index (pK1)” value is recorded as 3.99 and the “Second dissociation index (pK2)” value is reported as 7.34.
`O=C(O)[C@H]1CCC[C@H]1C(=O)O` [Cis-1,2-cyclopentanedicarboxylic acid]: the “Difference (pK2 - pK1)” value in data set [1] is recorded as 2.15. In data set [2], the “First acid dissociation index (pK1)” value is 4.42 and the “Second dissociation index (pK2)” value is 6.57.
Turning to `O=C(O)[C@H]1C[C@H]1C(=O)O` [Cis-1,2-cyclopropanedicarboxylic acid], the “Difference (pK2 - pK1)” value in data set [1] was 3.09. In data set [2], the “First acid dissociation index (pK1)” value is 3.56 and the “Second dissociation index (pK2)” value is reported as 6.65.
On to `C=C(C)C(=O)OCCCCCCCCCCCC` [Comparative Example 1, lauryl methacrylate, reference compound], for which, in data set [3], the Deodorization rate is 10%. The Evaluation of odor in data set [4] came out at 3; in data set [5] it was 2.
Take `O=C(O)CCC(=O)O` [Comparative Example 2, succinic acid, reference compound]: in data set [1], the “first acid dissociation index” value is listed as 4.00 and the “second acid dissociation index” value is 5.25. In data set [1] (given in running text), the “difference of acid dissociation index” value is reported as “less than 1.7”. In data set [3], the Deodorization rate is 33%. The compound further showed an Evaluation of odor in data set [4] of 3. Also, the Evaluation of odor in data set [5] turned out to be 2.
As to `O=C(O)CC1(CC(=O)O)CCCCC1` [Cyclohexyl-1,1-diacetic acid], in data set [1], the “Difference (pK2 - pK1)” value is reported as 3.59. In addition, in data set [2], the “First acid dissociation index (pK1)” value was 3.49 and the “Second dissociation index (pK2)” value is on record as 7.08.
`O=C(O)[C@H]1CCCC[C@H]1C(=O)O` [Deodorant base agent 1, cis-cyclohexane-1,2-dicarboxylic acid]: the Deodorization rate in data set [3] is 79%. Also, the Evaluation of odor amounted to 2 in data set [4] and 1 in data set [5].
For `O=C1OC(=O)C2C3C=CC(C3)C12` (centres unmarked) [Deodorant base agent 2, 5-norbornene-2,3-dicarboxylic acid anhydride], the “first acid dissociation index” value in data set [1] came to 4.16. For the same compound, in data set [1], the “second acid dissociation index” value stood at 6.23. The same compound registered a Deodorization rate in data set [3] of 88%. Further, the Evaluation of odor in data set [4] and in data set [5] was 1 in each case.
As for `O=C(O)CC(C(=O)O)c1ccccc1` (centres unmarked) [Phenylsuccinic acid], in data set [1], the “Difference (pK2 - pK1)” value is given as 1.77. In data set [2], the “First acid dissociation index (pK1)” value is on record as 3.78 and the “Second dissociation index (pK2)” value is given as 5.55.
Consider `CC(C)(C(=O)O)C(C)(C)C(=O)O` [Tetramethylsuccinic acid], for which the “Difference (pK2 - pK1)” value in data set [1] was 3.85. In data set [2], the “First acid dissociation index (pK1)” value is recorded as 3.56 and the “Second dissociation index (pK2)” value is on record as 7.41.
Turning to `O=C(O)CC1(CC(=O)O)CCCC1` [cyclopentyl-1,1-diacetic acid], in data set [1], the “Difference (pK2 - pK1)” value stood at 2.97. Besides, in data set [2], the “First acid dissociation index (pK1)” value is on record as 3.80 and the “Second dissociation index (pK2)” value is 6.77.

(Values after patent publication US6780403B1, “Deodorants” (Kao Corporation, priority 1999, dated 2004).)
